Consider 1 compound from patent publication US11452728B2, “7-aminocephalosporanic acid derivative as inhibitor of IL15 and IL-2 activity” (Warszawski Uniwersytet Medyczny, priority 2013, dated 2022).

For data set [1], the system named is IL-2-induced TNF-α synthesis in PBMC. Nature of the data set: IL-2-induced TNF-α synthesis in PBMC (ELISA). Type of data set: cell-based, human. The following applies: IL-2 5 ng/ml; 48 h; Cefazolin 300 μM; vs IL-2 stimulated control cells. The protocol: (§1) All experiments were carried out on peripheral blood mononuclear cells (PBMC) from healthy donors. The cells were isolated under the standard protocol regarding density gradient centrifugation. According to the general protocol, 6 ml of blood was layered on 3 ml of Lymphoprep (Axis-shield, Norway), then centrifuged at 800×g for 15 min. The layer of PBMC was collected, the cells were washed twice with phosphate buffered saline (PBS) (BIOMED-LUBLIN, Poland) and suspended in medium RPMI1640 (Gibco, Great Britain), containing 10 mM HEPES (Sigma, USA), 10% fetal calf serum (BIOMED-LUBLIN, Poland) and antibiotic (streptomycin sulfate, penicillin G sodium; amphotericin B, PAA, Austria).
(§2) In all the in vitro experiments non-stimulated PBMC were used as the control. The inhibition efficacy was assessed in relation to the cells stimulated with IL-15 or IL-2. […]
(§3) The PBMC were seeded in a 24-well plate (2×10^6 cells in 1 ml of the culture medium/well), treated with the tested compound and after 30 min stimulated with IL-15 (5 ng/ml) or IL-2 (5 ng/ml). After 48 h incubation, the culture medium was collected from each well to determine the TNF-α concentration, cells were harvested and lysed, and the concentration of total protein was measured in cell lysates. The obtained values of TNF-α concentration were calculated for 1 mg of protein. […]

Another data set relates to Gram-positive bacteria. The following applies: cited from earlier work.
The test system of the next data set is IL-15-stimulated PBMC. Nature of the data set: IL-15-induced PBMC proliferation (BrdU Cell Proliferation Assay). Type of data set: cell-based, human. The following applies: IL-15 5 ng/ml; Cefazolin 20, 100, 300 μM; 4 days; repeated three times, different donors.
The conditions of data set [2]: cited from earlier work.
For a further data set, the system named is IL-2-stimulated PBMC. Nature of the data set: IL-2-induced PBMC proliferation (BrdU Cell Proliferation Assay). As to conditions: IL-2 5 ng/ml; Cefazolin 20, 100, 300 μM; 4 days; repeated three times, different donors. Type of data set: cell-based, human.
The subject of data set [3] is IL-2-induced IL-17 synthesis in PBMC. Nature of the data set: IL-2-induced IL-17 synthesis in PBMC (ELISA). As to conditions: IL-2 5 ng/ml; 48 h; Cefazolin 300 μM. Type of data set: cell-based, human. The protocol:
as §1, §2
(§4) PBMC were seeded in a 24-well plate (2×10^6 cells in 1 ml of the culture medium/well), treated with the inhibitor, after 30 min. stimulated with IL-15 (5 ng/ml) or IL-2 (5 ng/ml). After 48 hr incubation, the culture medium was collected from each well to determine the IL-17 concentration, cells were harvested and lysed, and the concentration of total protein was measured in cell lysates. The obtained values of IL-17 concentration were calculated for 1 mg of protein. […]

The test system of data set [4] is IL-15-induced TNF-α synthesis in PBMC. Nature of the data set: IL-15-induced TNF-α synthesis in PBMC (ELISA). Type of data set: cell-based, human. As to conditions: IL-15 5 ng/ml; 48 h; Cefazolin 20-1000 μM; vs IL-15 stimulated control cells. The protocol: as §1, §2, §3
(An ELISA detects its analyte on a solid surface through an enzyme-linked reagent.)

Data set [5] has as its system IL-15-induced IL-17 synthesis in PBMC. Nature of the data set: IL-15-induced IL-17 synthesis in PBMC (ELISA). Type of data set: cell-based, human. How it is done: as §1, §2, §4

Experimental for IL-15-stimulated PBMC: (§5) All experiments were carried out on peripheral blood mononuclear cells (PBMC) from healthy donors. The cells were isolated under the standard protocol regarding density gradient centrifugation. According to the general protocol, 6 ml of blood was layered on 3 ml of Lymphoprep (Axis-shield, Norway), then centrifuged at 800×g for 15 min. The layer of PBMC was collected, the cells were washed twice with phosphate buffered saline (PBS) (BIOMED-LUBLIN, Poland) and suspended in medium RPMI1640 (Gibco, Great Britain), containing 10 mM HEPES (Sigma, USA), 10% fetal calf serum (BIOMED-LUBLIN, Poland) and antibiotic (streptomycin sulfate, penicillin G sodium; amphotericin B, PAA, Austria). In all the in vitro experiments non-stimulated PBMC were used as the control. The inhibition efficacy was assessed in relation to the cells stimulated with IL-15 or IL-2. PBMC proliferation was evaluated using commercially available BrdU Cell Proliferation Assay (Calbiochem, Merck, Germany). PBMC were seeded in a 96-well plate (25×10^3 cells in 200 μL of the culture medium/well). The next day the cells were treated with the tested compound at final concentrations: 20 μM, 100 μM and 300 μM. […] The results are expressed as the percentage change of proliferating cells with regard to the control cells stimulated with IL-15 or IL-2. […]
Experimental for IL-2-stimulated PBMC: as §5

Consider `Cc1nnc(SCC2=C(C(=O)O)N3C(=O)[C@@H](NC(=O)Cn4cnnn4)[C@H]3SC2)s1` [Cefazolin], for which, in data set [1], the “effect on IL-2-induced TNF-α synthesis in PBMC” value was “significantly reduces”. For the same compound, the “bactericidal activity against Gram-positive bacteria” value with Gram-positive bacteria is reported as “Potent bactericidal activity”. Moreover, in the data set with IL-15-stimulated PBMC, the “effect on IL-15-induced PBMC proliferation” value is given as “inhibits”. Also, the “crossing of the blood brain barrier” value in data set [2] (in vivo) is reported as “does not cross the blood brain barrier”. In addition, the “excreted in urine of unchanged structure, share of the excreted amount” value in data set [2] (urine, glomerular filtration) is given as 90%. The “effect on IL-2-induced PBMC proliferation” value in the data set with IL-2-stimulated PBMC is given as “inhibits”. The “effect on IL-2-induced IL-17 synthesis in PBMC” value in [3] is given as “Strong inhibitory effect”. Besides, the “effect on IL-15-induced TNF-α synthesis in PBMC” value in [4] is “significantly reduces”. For the same compound, the “cytotoxic or apoptotic activity on PBMC” value in the data set on PBMC is given as “does not trigger the apoptotic pathway”. For the same compound, the “effect on IL-15-induced IL-17 synthesis in PBMC” value in data set [5] (IL-15 5 ng/ml, 48 h, Cefazolin 20-1000 μM, vs IL-15 stimulated control cells) is listed as “significantly reduces”. The “effect of increasing Cefazolin concentration on IL-15-induced IL-17 synthesis” value in data set [5] (increase of concentration from 200 μM to 1000 μM) is on record as “does not affect IL-17 synthesis to any great extent”.
